According to ChEMBL document CHEMBL1201862, “PubChem BioAssay data set” (2004):
Values belong to the compound of their own block, whether it stands above or below them. Active and inactive are the calls of the source.

Legend:
[1] = target: T1, Heat shock factor protein 1 (Mus musculus, UniProt P38532); test: decrease of HSF1-responsive luciferase luminescence – cell-based, NIH3T3, dose retest, confirmation (AID 2382); format: functional;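 further: NIH3T3 fibroblasts with HSF1-driven luciferase reporter stressed by proteasome inhibitor MG132; luminescence from HSF1-driven luciferase expression after 8 hours of MG132 stress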
T1 sequence (P38532 whole entry): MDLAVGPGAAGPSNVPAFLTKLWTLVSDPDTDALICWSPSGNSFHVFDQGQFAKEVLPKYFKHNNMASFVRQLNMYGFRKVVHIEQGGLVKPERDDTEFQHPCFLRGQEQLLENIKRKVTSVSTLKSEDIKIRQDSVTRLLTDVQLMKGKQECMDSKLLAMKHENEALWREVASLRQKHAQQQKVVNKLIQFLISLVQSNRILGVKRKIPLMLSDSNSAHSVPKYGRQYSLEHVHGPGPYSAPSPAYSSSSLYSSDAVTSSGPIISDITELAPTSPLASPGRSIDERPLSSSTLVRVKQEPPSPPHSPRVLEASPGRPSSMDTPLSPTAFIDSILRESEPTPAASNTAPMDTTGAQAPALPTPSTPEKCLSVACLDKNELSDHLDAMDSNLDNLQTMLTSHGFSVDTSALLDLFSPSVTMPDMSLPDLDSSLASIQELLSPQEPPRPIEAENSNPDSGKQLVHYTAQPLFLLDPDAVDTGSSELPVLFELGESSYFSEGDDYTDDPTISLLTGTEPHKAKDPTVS

Cytochrome P450 2C9 = Cytochrome P450 2C9 (Homo sapiens, UniProt P11712)
[2] = target: Proto-oncogene tyrosine-protein kinase ROS (Homo sapiens, UniProt P08922); format: functional;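 further: ROS1 tested as one member of a kinome-wide kinase panel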
[3] = target: Tyrosine-protein kinase Blk (Homo sapiens, UniProt P51451); format: functional;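 further: obtained as one member of a kinome-wide kinase assay panel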
[4] = target: Protein kinase C gamma type (Homo sapiens, UniProt P05129); format: functional
[5] = target: Insulin-like growth factor 1 receptor (Homo sapiens, UniProt P08069); test: Navigating the Kinome. Panel member name: IGF1R; format: functional
[6] = target: cAMP-dependent protein kinase catalytic subunit PRKX (Homo sapiens, UniProt P51817); format: functional
Aurora kinase B = Aurora kinase B (Homo sapiens, UniProt Q96GD4); format: functional
[7] = target: T2, Interleukin-1 receptor-associated kinase 4 (Homo sapiens, UniProt Q9NWZ3); format: functional
T2 sequence (Q9NWZ3 whole entry): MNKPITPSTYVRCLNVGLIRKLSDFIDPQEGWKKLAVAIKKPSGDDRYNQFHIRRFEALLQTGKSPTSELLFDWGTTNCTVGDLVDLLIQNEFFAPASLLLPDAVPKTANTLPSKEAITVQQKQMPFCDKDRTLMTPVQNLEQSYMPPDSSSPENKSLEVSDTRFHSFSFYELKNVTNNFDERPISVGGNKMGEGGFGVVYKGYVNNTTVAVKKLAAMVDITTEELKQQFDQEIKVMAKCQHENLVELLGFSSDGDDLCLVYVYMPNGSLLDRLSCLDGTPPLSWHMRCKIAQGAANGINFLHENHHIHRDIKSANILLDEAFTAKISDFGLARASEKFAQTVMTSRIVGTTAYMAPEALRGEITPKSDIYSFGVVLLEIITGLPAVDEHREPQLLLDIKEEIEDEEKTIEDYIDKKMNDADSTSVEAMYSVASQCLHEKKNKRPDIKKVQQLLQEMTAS

[8] = target: Dual specificity mitogen-activated protein kinase kinase 2 (Homo sapiens, UniProt P36507); test: Navigating the Kinome. Panel member name: MAP2K2; format: functional
[9] = target: Mitogen-activated protein kinase 14 (Homo sapiens, UniProt Q16539); format: functional;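 further: part of a kinome-wide panel, MAPK14 entry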
[10] = target: Tyrosine-protein kinase FRK (Homo sapiens, UniProt P42685); format: functional;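 further: FRK tested as one member of a kinome panel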
[11] = target: T3, Tyrosine-protein phosphatase non-receptor type 7 (Homo sapiens, UniProt P35236); format: functional
T3 sequence (P35236 whole entry): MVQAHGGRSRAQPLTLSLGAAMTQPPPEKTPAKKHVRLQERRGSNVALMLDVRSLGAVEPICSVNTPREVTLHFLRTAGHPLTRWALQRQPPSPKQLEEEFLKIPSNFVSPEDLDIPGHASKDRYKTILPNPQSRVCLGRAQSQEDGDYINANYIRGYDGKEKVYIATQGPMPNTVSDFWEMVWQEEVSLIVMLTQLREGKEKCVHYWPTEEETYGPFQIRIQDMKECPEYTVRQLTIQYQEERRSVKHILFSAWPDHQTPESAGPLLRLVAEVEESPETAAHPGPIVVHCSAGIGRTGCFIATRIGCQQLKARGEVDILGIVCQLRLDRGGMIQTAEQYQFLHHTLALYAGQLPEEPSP

[12] = Trypanosoma cruzi growth suppression in host cells – NIH3T3 host cells, beta-gal luminescence, confirmation (AID 2044); format: functional, cell-based;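 further: intracellular parasites grown in NIH/3T3 mouse fibroblasts as host cells; luminescent beta-galactosidase reporter signal from transgenic T. cruzi replicating inside host cells; inhibitors lower the luminescence signal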
[13] = Luminescence-based dose response cell-based high throughput screening assay for cytotoxic compounds using the IEC-6 intestinal epithelial cell line. [Related pubchem assays: 1858 (Summary AID.), 1825 (Counterscreen.), 1907 (Confirmation screen.)]; format: functional
[14] = target: Tyrosine-protein phosphatase non-receptor type 22 (Homo sapiens, UniProt Q9Y2R2); format: functional;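 further: confirmatory dose-response retesting of primary uHTS hits against LYP; potency is for inhibition of phosphatase activity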
[15] = target: Dual specificity tyrosine-phosphorylation-regulated kinase 1A (Rattus norvegicus, UniProt Q63470); format: biochemical, Homo sapiens
[16] = target: Ras and Rab interactor 1/Tyrosine-protein kinase ABL1 (Homo sapiens, UniProt P00519+Q13671); format: functional;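 further: biochemical TR-FRET dose-response test measuring inhibition of binding between Rin1 and Abl proteins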
[17] = reduction of Shn3 3'UTR-driven luciferase in osteoblasts – cell-based, Clone20 osteoblasts, firefly luciferase, cherry-picked, dose response (AID 624132); format: functional;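 further: firefly luciferase luminescence from reporter carrying the Shn3 3'UTR in osteoblasts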
[18] = target: Histone-lysine N-methyltransferase NSD2 (Homo sapiens, UniProt O96028); format: biochemical
Chain of Histone-lysine N-methyltransferase NSD2 (O96028 whole entry): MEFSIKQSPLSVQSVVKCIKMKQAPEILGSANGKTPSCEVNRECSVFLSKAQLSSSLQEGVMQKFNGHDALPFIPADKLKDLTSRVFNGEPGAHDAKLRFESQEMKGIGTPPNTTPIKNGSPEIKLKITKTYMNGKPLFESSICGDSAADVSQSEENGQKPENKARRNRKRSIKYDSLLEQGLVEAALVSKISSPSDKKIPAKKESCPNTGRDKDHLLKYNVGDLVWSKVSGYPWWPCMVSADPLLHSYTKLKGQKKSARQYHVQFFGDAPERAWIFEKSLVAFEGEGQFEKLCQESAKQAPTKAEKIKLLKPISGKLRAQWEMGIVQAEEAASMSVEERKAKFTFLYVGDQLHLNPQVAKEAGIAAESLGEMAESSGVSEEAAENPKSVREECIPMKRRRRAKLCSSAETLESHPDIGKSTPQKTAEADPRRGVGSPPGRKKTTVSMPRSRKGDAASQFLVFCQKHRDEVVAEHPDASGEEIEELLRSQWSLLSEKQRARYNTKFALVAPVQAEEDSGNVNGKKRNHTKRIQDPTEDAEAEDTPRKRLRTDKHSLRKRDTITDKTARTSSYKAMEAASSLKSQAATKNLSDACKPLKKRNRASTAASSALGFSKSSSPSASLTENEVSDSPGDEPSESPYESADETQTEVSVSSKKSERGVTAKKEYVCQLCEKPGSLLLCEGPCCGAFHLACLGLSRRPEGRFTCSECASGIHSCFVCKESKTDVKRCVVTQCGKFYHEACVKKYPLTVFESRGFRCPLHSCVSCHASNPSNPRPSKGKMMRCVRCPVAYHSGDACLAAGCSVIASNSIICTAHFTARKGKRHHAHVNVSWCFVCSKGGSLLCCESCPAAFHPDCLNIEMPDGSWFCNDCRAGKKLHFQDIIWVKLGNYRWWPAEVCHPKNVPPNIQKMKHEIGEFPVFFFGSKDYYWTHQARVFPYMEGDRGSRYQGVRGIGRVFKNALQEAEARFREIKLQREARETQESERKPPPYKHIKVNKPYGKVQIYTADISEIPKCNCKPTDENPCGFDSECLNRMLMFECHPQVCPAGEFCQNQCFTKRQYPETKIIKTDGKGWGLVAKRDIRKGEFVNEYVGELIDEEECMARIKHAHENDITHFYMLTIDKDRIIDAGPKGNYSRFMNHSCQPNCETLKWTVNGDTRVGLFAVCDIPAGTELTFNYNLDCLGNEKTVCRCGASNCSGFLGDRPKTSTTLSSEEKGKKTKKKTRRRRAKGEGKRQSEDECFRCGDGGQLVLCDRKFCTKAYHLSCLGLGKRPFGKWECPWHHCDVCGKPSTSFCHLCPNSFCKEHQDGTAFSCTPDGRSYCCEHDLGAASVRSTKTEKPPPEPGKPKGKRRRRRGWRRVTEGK

Chain of Aurora kinase B (Q96GD4 whole entry): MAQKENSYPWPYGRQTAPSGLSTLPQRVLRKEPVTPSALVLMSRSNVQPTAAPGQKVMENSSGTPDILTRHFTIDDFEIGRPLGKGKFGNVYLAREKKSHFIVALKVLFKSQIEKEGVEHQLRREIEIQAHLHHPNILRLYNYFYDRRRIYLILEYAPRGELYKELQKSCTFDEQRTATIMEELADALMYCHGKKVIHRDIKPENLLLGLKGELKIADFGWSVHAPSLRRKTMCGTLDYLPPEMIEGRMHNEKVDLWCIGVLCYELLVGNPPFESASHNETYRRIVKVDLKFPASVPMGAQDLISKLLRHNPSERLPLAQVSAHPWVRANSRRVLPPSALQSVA
Chain of Mitogen-activated protein kinase 14 (Q16539 whole entry): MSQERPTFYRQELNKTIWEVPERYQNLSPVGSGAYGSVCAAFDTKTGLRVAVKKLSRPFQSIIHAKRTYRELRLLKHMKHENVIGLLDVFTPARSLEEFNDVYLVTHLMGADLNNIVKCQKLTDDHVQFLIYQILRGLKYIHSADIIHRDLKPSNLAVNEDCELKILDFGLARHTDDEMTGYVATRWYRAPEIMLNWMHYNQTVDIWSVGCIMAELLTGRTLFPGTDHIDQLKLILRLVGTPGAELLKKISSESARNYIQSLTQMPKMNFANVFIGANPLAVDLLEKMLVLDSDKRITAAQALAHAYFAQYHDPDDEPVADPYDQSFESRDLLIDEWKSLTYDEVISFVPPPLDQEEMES
Chain of cAMP-dependent protein kinase catalytic subunit PRKX (P51817 whole entry): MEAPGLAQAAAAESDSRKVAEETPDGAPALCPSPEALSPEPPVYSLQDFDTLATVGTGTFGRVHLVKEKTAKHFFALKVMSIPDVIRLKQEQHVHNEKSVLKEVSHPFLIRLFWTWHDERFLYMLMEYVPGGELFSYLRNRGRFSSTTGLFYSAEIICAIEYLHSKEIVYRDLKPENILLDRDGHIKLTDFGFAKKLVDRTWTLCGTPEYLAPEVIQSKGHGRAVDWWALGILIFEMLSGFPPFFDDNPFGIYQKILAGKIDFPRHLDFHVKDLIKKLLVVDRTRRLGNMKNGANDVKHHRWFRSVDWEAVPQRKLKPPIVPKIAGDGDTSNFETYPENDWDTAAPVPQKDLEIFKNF
Chain of Insulin-like growth factor 1 receptor (P08069 31-736 limits assumed): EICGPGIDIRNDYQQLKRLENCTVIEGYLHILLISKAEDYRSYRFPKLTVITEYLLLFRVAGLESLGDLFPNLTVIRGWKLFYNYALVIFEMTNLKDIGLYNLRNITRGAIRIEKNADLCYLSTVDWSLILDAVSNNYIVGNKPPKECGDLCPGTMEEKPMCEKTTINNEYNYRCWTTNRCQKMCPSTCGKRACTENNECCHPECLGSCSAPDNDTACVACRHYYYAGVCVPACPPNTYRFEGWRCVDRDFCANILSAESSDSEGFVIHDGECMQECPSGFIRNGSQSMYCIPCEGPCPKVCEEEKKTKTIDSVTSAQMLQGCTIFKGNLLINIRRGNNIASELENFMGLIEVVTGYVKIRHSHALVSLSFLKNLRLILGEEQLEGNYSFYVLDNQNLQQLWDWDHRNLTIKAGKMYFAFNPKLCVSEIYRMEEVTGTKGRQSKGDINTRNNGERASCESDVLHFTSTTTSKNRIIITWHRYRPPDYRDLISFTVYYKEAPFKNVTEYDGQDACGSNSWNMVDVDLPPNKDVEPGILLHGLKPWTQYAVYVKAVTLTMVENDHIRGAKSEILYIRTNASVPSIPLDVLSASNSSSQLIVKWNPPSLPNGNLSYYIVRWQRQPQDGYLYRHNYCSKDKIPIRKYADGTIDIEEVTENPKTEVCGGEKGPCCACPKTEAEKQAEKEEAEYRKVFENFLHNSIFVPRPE
Chain of Insulin-like growth factor 1 receptor (P08069 741-1367 limits assumed): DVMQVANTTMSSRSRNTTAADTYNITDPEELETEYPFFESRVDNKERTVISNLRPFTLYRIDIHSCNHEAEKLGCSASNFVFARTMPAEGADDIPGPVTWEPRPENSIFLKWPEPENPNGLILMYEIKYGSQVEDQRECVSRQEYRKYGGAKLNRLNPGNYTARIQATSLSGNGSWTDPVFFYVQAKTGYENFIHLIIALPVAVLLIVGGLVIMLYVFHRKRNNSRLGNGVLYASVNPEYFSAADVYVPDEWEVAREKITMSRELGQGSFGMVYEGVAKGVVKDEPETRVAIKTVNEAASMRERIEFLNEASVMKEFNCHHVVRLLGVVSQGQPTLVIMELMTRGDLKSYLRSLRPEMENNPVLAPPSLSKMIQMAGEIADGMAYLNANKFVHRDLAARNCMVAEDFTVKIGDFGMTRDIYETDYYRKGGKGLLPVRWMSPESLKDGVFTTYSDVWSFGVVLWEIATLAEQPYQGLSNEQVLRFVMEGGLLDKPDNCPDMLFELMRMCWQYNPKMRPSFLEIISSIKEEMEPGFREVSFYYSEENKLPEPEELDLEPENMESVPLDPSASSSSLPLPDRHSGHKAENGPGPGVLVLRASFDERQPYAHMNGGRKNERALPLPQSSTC
Chain of Tyrosine-protein kinase Blk (P51451 whole entry): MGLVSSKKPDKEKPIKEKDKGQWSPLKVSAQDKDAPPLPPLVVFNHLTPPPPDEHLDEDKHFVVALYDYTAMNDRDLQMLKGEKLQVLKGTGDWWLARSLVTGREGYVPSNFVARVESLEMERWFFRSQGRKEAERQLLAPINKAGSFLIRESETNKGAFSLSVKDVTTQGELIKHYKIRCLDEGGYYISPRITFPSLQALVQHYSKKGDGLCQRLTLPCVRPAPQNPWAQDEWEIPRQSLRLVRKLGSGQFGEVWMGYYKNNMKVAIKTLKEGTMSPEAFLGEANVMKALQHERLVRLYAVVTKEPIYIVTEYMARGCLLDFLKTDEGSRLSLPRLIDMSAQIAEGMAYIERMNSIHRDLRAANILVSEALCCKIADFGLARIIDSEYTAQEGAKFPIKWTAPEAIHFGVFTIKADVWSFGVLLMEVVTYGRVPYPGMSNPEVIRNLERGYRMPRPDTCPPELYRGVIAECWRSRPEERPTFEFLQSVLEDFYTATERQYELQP

Compound: CC(C)c1ccc(-c2nnn(CCC(=O)O)n2)cc1
EC50 [1]: < 160 nM (active)
AC50 (Cytochrome P450 2C9): 31600 nM (inconclusive)

Ki [2]: 2.51 nM (active)
Ki [3]: > 1580 nM (inactive)
Ki [4]: 1000 nM (active)
Ki [5]: 2 nM (active)
Ki [6]: > 3160 nM (inactive)
Ki (Aurora kinase B): > 3980 nM (inactive)
Ki [7]: 10000 nM (active)
Ki [8]: > 3980 nM (inactive)
Ki [9]: > 3980 nM (inactive)
Ki [10]: > 2510 nM (inactive)
Compound: COc1cc2c(cc1Nc1nc(Nc3cccc(F)c3C(N)=O)c3cc[nH]c3n1)N(C(=O)CN(C)C)CC2

Compound: CCn1nc(/C=C/c2ccccc2)nc2c(=O)n(C)c(=O)nc1-2
IC50 [11]: 10300 nM (active)
EC50 [12]: 789 nM (active)
IC50 [13]: 335 nM (active)
IC50 [14]: 13000 nM (active)
AC50 [15]: 281 nM (active)
IC50 [16]: > 73500 nM (inactive)
AC50 [17]: 2570 nM (active)
AC50 [18]: 87.9 nM (active)
